Data on one molecule can be found in patent publication US8329703B2, “Pyrazole compounds” (XTL Biopharmaceuticals Ltd., priority 2005, dated 2012).

Data set [1] concerns Huh-Luc-Neo cells. The data set is described as follows: Cell Titer-Glo Cell Viability Assay. In kind it is cell-based, human. The procedure:
(§1) Day 2, Reagent Preparation and Luciferase Assay: The Bright-Glo Luciferase Assay Buffer (Promega) is thawed and equilibrated to room temperature prior to use. The lyophilized Bright-Glo Luciferase Assay Substrate is equilibrated to room temperature prior to use. 10 ml of Bright-Glo Luciferase Assay Buffer is transferred to 1 vial of Bright-Glo Luciferase Assay Substrate bottle and mixed by gently with a Vortex. 100 ul of Bright-Glo Luciferase Assay reagent (Bright-Glo Luciferase Assay Buffer+Bright-Glo Luciferase Assay Substrate Mixture) is added to each well. The well contents are mixed for 5 min. on an orbital shaker at room temperature to induce cell lysis and the luminescence is then measured using a luminometer. The data is analyzed and IC50s are determined using GraphPad Prism 4 software. Hits validated in the Replicon Luciferase assay have IC50s<8.0 μM and show <30% inhibition of Cell Viability at a compound concentration of 100 μM (Cell Titer Glow Assay, cell viability assay conditions identical to HCV Replicon Luciferase Assay conditions).
(§2) Day 3, Quantitative PCR Based Measurement of HCV RNA (Taqman Assay): Quantitative PCR analysis to measure HCV RNA expression from cDNA synthesized on Day 2 is performed using the ABI 9700 HT Sequence Detection System (Applied Biosystems) as previously described (Lohman et al, Science 285, 110-113, 1999). The data is analyzed and IC50s are determined using GraphPad Prism 4 software. Hits validated in the Replicon RNA Assay have IC50s<8.0 μM and show <30% inhibition of Cell Viability at a compound concentration of 50 μM (Cell Titer Glow Assay, cell viability assay conditions identical to HCV Replicon RNA Assay conditions).
Day 0, Cell Seeding and Compound Treatment: Huh-Luc-Neo Cells are seeded at 25,000/well in an opaque-walled 96 plate with Growth Medium (DMEM phenol red free+PS+2 mM glutamine; 100 ul/well).
Day 2, Reagent Preparation and Assay: The CellTiter-Glo Buffer is thawed and equilibrated to room temperature prior to use. The lyophilized CellTiter-Glo Substrate is equilibrated to room temperature prior to use. 10 ml of CellTiter-Glo Buffer is transferred to 1 vial of CellTiter-Glo Substrate and mixed by gently with a Vortex. 100 μl of CellTiter-Glo Assay reagent (CellTiter-Glo Buffer+CellTiter-Glo Substrate Mixture) is added to each well. The well contents are mixed for 5 min. on an orbital shaker at room temperature to induce cell lysis and the luminescence is then measured using a luminometer.
A general note: ATP-based viability assays read luminescence as a measure of living cells.

Data set [2] has as its system HCV RNA (HCV Replicon) in Huh-Luc-Neo cells. The data set is described as follows: HCV Replicon RNA Assay (Taqman quantitative PCR). Type of data set: cell-based. The settings on record: Hepatitis C virus, 48 h, 2 compound treatments over 48 h, no unit printed in table (b307 gives IC50s in μM). The procedure: (§3) The identification of inhibitors of HCV replication and/or proliferation has been facilitated by the development of a cell based system to study HCV replication and assay for HCV inhibitors. Inhibition of HCV replication may be performed using the HCV Replicon Assay developed in the laboratories of Bartenschlager (Lohman et al, Science 285, 110-113, 1999) and Rice (Blight et al, Science 290, 1972-1974, 2000). The assay is performed using the Huh-Luc-Neo cell line (Lohman et al, Science 285, 110-113, 1999). Huh-Luc-Neo cells are a human hepatoma cell line (Huh-7) stably expressing a bi-cistronic subgenomic replicon containing the HCV IRES in which the […] of HCV had been deleted and replaced by a construct containing sequences coding for the firefly luciferase reporter gene, the neomycin selectable marker and the EMCV IRES to direct expression of a truncated HCV genome expressing the […] NS3, NS4A, NS4B, NS5A, and NS5B. HCV targets through which inhibitors could act to inhibit replication include the NS3 protease, the helicase/ATPase, NS5A, the NS5B-RNA dependent RNA polymerase, and the HCV IRES.
(§4) Expression of HCV IRES driven luciferase reporter activity and HCV RNA is measured to obtain indirect and direct measures of replication of HCV RNA respectively. Inhibitors of HCV replication and/or proliferation are determined by initially identifying molecules that inhibit expression of the HCV IRES driven luciferase reporter in this HCV Replicon Luciferase Assay. Cell viability assays and control cell based luciferase assays are then run on hits identified in the HCV Replicon Luciferase Assay to eliminate cytoxic compounds and non-specific compounds which act by inhibiting the luciferase enzyme.
Day 0, Cell Seeding and Compound Treatment: Huh-Luc-Neo Cells are seeded at 25,000/well in an opaque-walled 96 plate with Growth Medium (DMEM phenol red free+PS+2 mM glutamine; 100 μl/well). The compounds to be tested are added to the experimental wells (10 μl/well at 10× assay concentration) and the cells are then incubated (5% CO2, 37° C.).
Day 1, Media Change and Compound Treatment: 24 hours after the initial compound treatment the cell culture media is aspirated from the wells and fresh Growth Medium is added (DMEM phenol red free+PS+2 mM glutamine; 100 μl/well). The compounds to be tested are then added to the appropriate experimental wells (10 μl/well at 10× assay concentration) and the cells are then incubated (5% CO2, 37° C.) for an additional 24 hrs.
Day 2, RNA Isolation and cDNA Synthesis: The cells are washed with 1× Phosphate Buffered Saline (PBS) once.
as §2
(In general: Replicon systems follow genome replication, usually without infectious particles.)

In data set [3] the test system is HCV Replicon (HCV IRES driven luciferase reporter) in Huh-Luc-Neo cells. The data set is described as follows: HCV Replicon Luciferase Assay. Type of data set: cell-based. The conditions noted are these: Hepatitis C virus, 48 h, Huh-Luc-Neo cells, no unit printed in table (b301 gives IC50s in μM), read-out: Luciferase IC50. The procedure: as §3, §4
Day 0, Cell Seeding and Compound Treatment: Huh-Luc-Neo Cells are seeded at 25,000/well in an opaque-walled 96 plate with Growth Medium (DMEM phenol red free+PS+2 mM glutamine; 100 μl/well). The compounds to be tested are added to the experimental wells (10 μl/well at 10× assay concentration) and the cells are then incubated (5% CO2, 37° C.) for 48 h.
as §1

Molecules are shown by their SMILES.

The term IC50 denotes the concentration needed to halve the response being measured. With `Cn1cc(-c2ccc(O)c(-c3nn(C)cc3C#CC(C)(C)C)c2)cn1` [VQ_95538], the “Toxicity % Inhibition at 50 μM (2 doses)” value in data set [1] (inhibition of cell viability at 50 μM, 2 doses, conditions identical to HCV Replicon RNA Assay) turned out to be 6.1%. In data set [1] (inhibition of cell viability at 100 μM, 1 dose, conditions identical to HCV Replicon Luciferase Assay (48 h)), the “Toxicity % Inhibition at 100 μM (1 dose)” value worked out at 24.3%. In addition, the values for the IC50 in data set [2] and in data set [3] were 1.35 µM and 9.8 µM, respectively.
